This is an account of results in article PMC6212553, “Baicalein Enhances the Oral Bioavailability and Hepatoprotective Effects of Silybin Through the Inhibition of Efflux Transporters BCRP and MRP2” (Frontiers in Pharmacology, 2018).

In general, Tmax refers to the time at which the peak concentration occurs.

Data set [1] is described as follows: Pharmacokinetic study in rats after oral administration. The class given is in vivo, SD rats. Particulars: silybin 50 mg/kg oral; for CL/F / MRT last / Tmax / half-life: male, SD, rat, plasma, po, 50 mg/kg; for CL/F: read-out: CLz/F, free silybin (converted); for MRT last: read-out: MRT(0-t), free silybin; for Tmax: read-out: Tmax, free silybin; for half-life: read-out: t1/2z, free silybin (converted). The procedure:
A previously established liquid chromatography-mass spectrometry (LC-MS) method with slight modifications was used to determine the concentrations of all glucuronide and sulfate conjugates of silybin and free silybin in bio-samples (plasma, cell and media) ([Wen et al., 2008]). In brief, a 10 μl aliquot of each sample was enzymatically hydrolyzed with […] (8000 U/ml) and sulfatase (80 U/ml), and the reaction was terminated by adding 40 μl ice-cold acetonitrile containing glacial acetic acid (1%) and internal standard NG (25 ng/ml). After centrifugation at 13,500 rpm for 15 min at 4°C, the supernatant was dried in ice bath by blowing nitrogen. Later, the residues were reconstituted with 60 μl of 30% methanol in water containing 1% ascorbic acid, and an aliquot of 10 μl of final solution after centrifugation was analyzed by LC-MS/MS. In parallel, a 10 μl aliquot of each sample without enzymes was treated with 40 μl ice-cold acetonitrile containing glacial acetic acid (1%) and NG (25 ng/ml) to determine the concentration of free silybin. Therefore, the concentration of total glucuronides and sulfates was estimated based on the difference between the amount of total silybin (after incubation with both glucuronidase and sulfatase) and free silybin (without enzymatic incubation). The method was validated in terms of specificity, recovery, linearity, sensitivity (LLOQ), matrix effect, accuracy, precision, and stability based on the USA Food and Drug Administration (FDA) bioanalytical method validation guidance. The quantitative linear range for silybin A and B was 5 to 12500 ng/ml.
The analysis for the determination of the concentration of silybin and its glucuronides and sulfates was performed on an Agilent HP 1100 LC-MS system (Agilent, CA, United States) with Waters ACQUITY UPLC® BEH C18 Column (1.7 μm, 2.1 × 50 mm, Waters Corp., Ireland) protected by a C18 Security Guard cartridge (4 × 2.0 mm i.d., Phenomenex, Torrance, CA, United States). Silybin A and B were well separated using optimized gradient elution with 0.1% formic acid in water (mobile phase A) and methanol (mobile phase B) at a flow rate of 0.4 ml/min within 10 min at room temperature (22°C). The gradient elution was performed as follows (time: mobile phase B percentage): 0 min: 25%, 6 min: 40%, 6.5 min: 25%.
Mass spectrometry parameters: capillary voltage, -4000 V; drying gas, 9 L/min; drying gas temperature, 325°C; nebulizer pressure, 40 psi; fragment voltage, 35 V; dwell time, 200 ms; scan mode, selective ion monitoring (SIM) with [M-H]^- for silybin (m/z 481), mono-glucuronide (m/z 657), and NG (m/z 271). The LC-MS data were collected by Agilent ChemStation Software.
Male SD rats, weighting 200–250 g, were purchased from the Guangdong Medical Laboratory Animal Center. They were housed as six rats per cage and in a temperature- (21°C) and humidity-controlled (70%) room with a 12 h light/dark cycle with standard diet and water. All animals were allowed to acclimate to the housing conditions for 7 days prior to experimentation. Experimental procedures were approved by the Committee of Guangdong Provincial Hospital of Traditional Chinese Medicine (No # 2017044).
The SD rats were randomly divided into three groups with six rats per group and were given oral administration as follows: (1) silybin at a dosage of 50 mg/kg bodyweight, (2) silybin and baicalein at a dosage of 50 mg/kg each, and (3) baicalein at a dosage of 50 mg/kg body weight. Before the experiment, rats were pre-fasted for 24 h with water ad libitum and were maintained at a temperature of 21°C with 70% relative humidity and a 12 h light/dark cycle. Blood samples were collected via the tail vein (about 0.1 ml) at time intervals of 0, 15, 30, 45, 60, 90, 120, 240, 360, 480, and 720 min after oral administration with a temporary cannula ([Parasuraman et al., 2010]), and the samples were transferred into heparinized micro-centrifuge tubes. […]

The nature of data set [2]: Stability of SBA and SBB in plasma QC samples. Type of data set: in vitro ADME, rat. Particulars: three freeze–thaws, long-term, short-term, post-preparative. How it is done: Next, we wanted to investigate the effect of baicalein on the PKs of silybin in vivo. A validated analytical method for the determination of silybin and its total conjugates in rat plasma by LC-MS was developed based on a previous report with minor modifications ([Yuan et al., 2017]). […] The results of precision and accuracy for intra- and inter-day evaluation are presented in Supplementary Table S2. The lower limit of quantification (LLOQ) was 5 ng/ml with relative standard deviation (RSD) ≤6.4%. The RSD values of quality control (QC) samples examined for precision were within 6.4%, while the accuracy ranged from 91.7 to 109.5%. It can be seen from Supplementary Table S2 that the extraction recoveries of silybin A and B were above 84.4% in plasma. Stability of SBA and SBB in plasma was also tested using QC samples at four different concentrations in the stability tests of three freeze–thaws, long-term, short-term, and post-preparative.
S. Table 1.Calibration curves for determination of S Ba, and S Bb in plasm a samples.
Cpd. Standard curv es R2 R ange
S. Table 2.P recision,accurac y and recover y for determination of S Ba, and S Bb in […]
S. Table 3. Stabilit y t esting results for determination of SBa, and S Bb in plasma […]
Initial a Freeze- thaw b Short-t e r m b Long- t e r m b Post-Prep. b […]
a. Contents of silybin and tangeretin in the freshly prepared QC samples. b. […]

Setting [3] is: with baicalein 50 mg/kg, listed as SBA.
Where [4] appears, read: without baicalein, listed as SBA.
[5] abbreviates: with baicalein 50 mg/kg, listed as SBB.

Each structure is given as a SMILES string. Like-named read-outs stand apart in the source and are kept apart here.

Consider `COc1cc([C@H]2Oc3cc([C@H]4Oc5cc(O)cc(O)c5C(=O)[C@@H]4O)ccc3O[C@@H]2CO)ccc1O` [silybin A], for which, in data set [1] (with baicalein 50 mg/kg), the CL/F was 233 mL/min/kg, the MRT last was 1.9 ± 0.2 h, the Tmax worked out at 1.5 h and the half-life is 1.6 ± 2.3 h. Moreover, in data set [1] (with baicalein 50 mg/kg), the “AUC(0-t), free silybin” value is on record as 3534 ± 344 ng ⋅ h/ml; the “AUC(0-∞), free silybin” value is recorded as 3599 ± 410 ng ⋅ h/ml; the “Cmax, free silybin” value was 1526 ± 126 ng/mL. In addition, in data set [1] (without baicalein), the CL/F is 417 mL/min/kg, the MRT last was found to be 4.1 ± 0.9 h, the Tmax amounted to 1.5 h and the half-life was 1.5 ± 0.2 h. Besides, in data set [1] (without baicalein), the “AUC(0-∞), free silybin” value was determined as 2305 ± 1147 ng ⋅ h/ml. In addition, in data set [1] (setting [3]), the “AUC(0-t), free silybin” value was 3534 ± 344 ng ⋅ h/ml and the “Cmax, free silybin” value was determined as 1526 ± 126 ng/mL. In data set [1] (setting [4]), the “AUC(0-t), free silybin” value was 1292 ± 342 ng ⋅ h/ml and the “Cmax, free silybin” value was found to be 507.7 ± 115 ng/mL. Moreover, the stability in plasma result in data set [2] is on record as “without significant loss”.

As to `COc1cc([C@@H]2Oc3cc([C@H]4Oc5cc(O)cc(O)c5C(=O)[C@@H]4O)ccc3O[C@H]2CO)ccc1O` [silybin B], in data set [1] (with baicalein 50 mg/kg), the CL/F was 298 mL/min/kg, the MRT last turned out to be 2.1 ± 0.3 h, the Tmax came out at 1.29 ± 0.51 h and the half-life is 1.34 ± 0.53 h. The “AUC(0-∞), free silybin” value in data set [1] (with baicalein 50 mg/kg) was determined as 1812 ± 223 ng ⋅ h/ml. For the same compound, in data set [1] (without baicalein), the CL/F is 450 mL/min/kg, the MRT last came to 4.21 ± 0.98 h, the Tmax was found to be 1.5 h and the half-life was 1.7 ± 0.3 h. In addition, in data set [1] (without baicalein), the “AUC(0-t), free silybin” value is given as 1195 ± 302 ng ⋅ h/ml; the “AUC(0-∞), free silybin” value was found to be 2087 ± 932 ng ⋅ h/ml; the “Cmax, free silybin” value was determined as 413 ± 69 ng/mL. For the same compound, in data set [1] (setting [5]), the “AUC(0-t), free silybin” value was determined as 1808 ± 226 ng ⋅ h/ml and the “Cmax, free silybin” value is 915.2 ± 151 ng/mL. Besides, in data set [1] (without baicalein, listed as SBB), the “Cmax, free silybin” value stood at 412.7 ± 69.3 ng/mL. For the same compound, the stability in plasma entry in data set [2] was “without significant loss”.
